Test results taken from ChEMBL document CHEMBL3390834, “Development of second generation epigenetic agents” (Medchemcomm, 2012).
pIC50, pKd: −log10 of the molar value.

What was measured:
[1] = molecular target: T1, Histone-arginine methyltransferase CARM1 (Homo sapiens, UniProt Q86X55); test: Inhibition of full-length GST-tagged CARM-1 (unknown origin) expressed in Spodoptera frugiperda cells using histone H3 and tritiated-SAM as substrate
T1 sequence (Q86X55 whole entry): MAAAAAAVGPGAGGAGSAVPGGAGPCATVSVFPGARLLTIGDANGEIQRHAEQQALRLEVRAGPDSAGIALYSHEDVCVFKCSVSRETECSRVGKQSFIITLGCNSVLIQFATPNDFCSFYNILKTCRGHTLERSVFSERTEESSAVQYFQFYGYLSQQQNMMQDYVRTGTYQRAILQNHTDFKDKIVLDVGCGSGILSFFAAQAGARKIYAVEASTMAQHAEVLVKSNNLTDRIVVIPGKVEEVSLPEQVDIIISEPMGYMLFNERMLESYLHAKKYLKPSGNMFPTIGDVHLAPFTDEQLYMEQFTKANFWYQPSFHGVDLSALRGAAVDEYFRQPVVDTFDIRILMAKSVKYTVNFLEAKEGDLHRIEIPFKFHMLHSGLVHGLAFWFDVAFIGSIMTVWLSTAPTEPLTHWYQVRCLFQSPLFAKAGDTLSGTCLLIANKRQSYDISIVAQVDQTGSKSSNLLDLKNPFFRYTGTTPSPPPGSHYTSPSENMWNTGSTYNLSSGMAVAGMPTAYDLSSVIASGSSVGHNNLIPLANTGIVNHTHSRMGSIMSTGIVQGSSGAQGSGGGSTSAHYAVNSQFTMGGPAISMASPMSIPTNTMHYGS

[2] = Inhibition of DIM-5 (unknown origin)
[3] = molecular target: T2, Lysine-specific histone demethylase 1A (Homo sapiens, UniProt O60341); test: Inhibition of N-terminal His-6-tagged full length human LSD-1 expressed in Escherichia coli BL21 (DE3) using H3K4me2 peptide as substrate at 1 uM by Western blotting analysis relative to control
[4] = molecular target: T3, Lysine-specific demethylase 4E (Homo sapiens, UniProt B2RXH2)
T3 sequence (B2RXH2 whole entry): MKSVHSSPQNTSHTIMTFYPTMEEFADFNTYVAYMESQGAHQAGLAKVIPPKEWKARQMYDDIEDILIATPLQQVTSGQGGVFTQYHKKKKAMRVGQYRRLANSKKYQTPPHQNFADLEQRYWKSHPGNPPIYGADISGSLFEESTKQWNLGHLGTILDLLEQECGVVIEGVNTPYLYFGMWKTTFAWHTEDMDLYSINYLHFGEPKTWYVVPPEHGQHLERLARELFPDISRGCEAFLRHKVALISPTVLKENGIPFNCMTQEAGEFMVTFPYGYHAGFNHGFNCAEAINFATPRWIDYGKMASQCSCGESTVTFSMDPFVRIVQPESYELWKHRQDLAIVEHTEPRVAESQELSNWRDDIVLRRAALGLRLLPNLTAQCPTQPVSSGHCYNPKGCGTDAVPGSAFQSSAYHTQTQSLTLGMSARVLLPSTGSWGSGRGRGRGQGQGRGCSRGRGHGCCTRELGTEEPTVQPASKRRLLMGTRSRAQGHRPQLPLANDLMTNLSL
Description: Inhibition of N-terminal His-6-tagged human JMJD2E (1 to 337 residues) expressed in Escherichia coli by MALDI-TOF/MS analysis

[5] = molecular target: T2, Lysine-specific histone demethylase 1A; test: Inhibition of N-terminal His-6-tagged full length human LSD-1 expressed in Escherichia coli BL21 (DE3) using H3K4me2 peptide as substrate by Western blotting analysis
[6] = molecular target: T4, Histone acetyltransferase p300 (Homo sapiens, UniProt Q09472); test: Inhibition of recombinant p300 (unknown origin) expressed in baculovirus expression system using [3H]acetyl-CoA as substrate preincubated for 10 mins followed by substrate addition measured after 10 mins by liquid scintillation counting analysis
T4 sequence (Q09472 whole entry): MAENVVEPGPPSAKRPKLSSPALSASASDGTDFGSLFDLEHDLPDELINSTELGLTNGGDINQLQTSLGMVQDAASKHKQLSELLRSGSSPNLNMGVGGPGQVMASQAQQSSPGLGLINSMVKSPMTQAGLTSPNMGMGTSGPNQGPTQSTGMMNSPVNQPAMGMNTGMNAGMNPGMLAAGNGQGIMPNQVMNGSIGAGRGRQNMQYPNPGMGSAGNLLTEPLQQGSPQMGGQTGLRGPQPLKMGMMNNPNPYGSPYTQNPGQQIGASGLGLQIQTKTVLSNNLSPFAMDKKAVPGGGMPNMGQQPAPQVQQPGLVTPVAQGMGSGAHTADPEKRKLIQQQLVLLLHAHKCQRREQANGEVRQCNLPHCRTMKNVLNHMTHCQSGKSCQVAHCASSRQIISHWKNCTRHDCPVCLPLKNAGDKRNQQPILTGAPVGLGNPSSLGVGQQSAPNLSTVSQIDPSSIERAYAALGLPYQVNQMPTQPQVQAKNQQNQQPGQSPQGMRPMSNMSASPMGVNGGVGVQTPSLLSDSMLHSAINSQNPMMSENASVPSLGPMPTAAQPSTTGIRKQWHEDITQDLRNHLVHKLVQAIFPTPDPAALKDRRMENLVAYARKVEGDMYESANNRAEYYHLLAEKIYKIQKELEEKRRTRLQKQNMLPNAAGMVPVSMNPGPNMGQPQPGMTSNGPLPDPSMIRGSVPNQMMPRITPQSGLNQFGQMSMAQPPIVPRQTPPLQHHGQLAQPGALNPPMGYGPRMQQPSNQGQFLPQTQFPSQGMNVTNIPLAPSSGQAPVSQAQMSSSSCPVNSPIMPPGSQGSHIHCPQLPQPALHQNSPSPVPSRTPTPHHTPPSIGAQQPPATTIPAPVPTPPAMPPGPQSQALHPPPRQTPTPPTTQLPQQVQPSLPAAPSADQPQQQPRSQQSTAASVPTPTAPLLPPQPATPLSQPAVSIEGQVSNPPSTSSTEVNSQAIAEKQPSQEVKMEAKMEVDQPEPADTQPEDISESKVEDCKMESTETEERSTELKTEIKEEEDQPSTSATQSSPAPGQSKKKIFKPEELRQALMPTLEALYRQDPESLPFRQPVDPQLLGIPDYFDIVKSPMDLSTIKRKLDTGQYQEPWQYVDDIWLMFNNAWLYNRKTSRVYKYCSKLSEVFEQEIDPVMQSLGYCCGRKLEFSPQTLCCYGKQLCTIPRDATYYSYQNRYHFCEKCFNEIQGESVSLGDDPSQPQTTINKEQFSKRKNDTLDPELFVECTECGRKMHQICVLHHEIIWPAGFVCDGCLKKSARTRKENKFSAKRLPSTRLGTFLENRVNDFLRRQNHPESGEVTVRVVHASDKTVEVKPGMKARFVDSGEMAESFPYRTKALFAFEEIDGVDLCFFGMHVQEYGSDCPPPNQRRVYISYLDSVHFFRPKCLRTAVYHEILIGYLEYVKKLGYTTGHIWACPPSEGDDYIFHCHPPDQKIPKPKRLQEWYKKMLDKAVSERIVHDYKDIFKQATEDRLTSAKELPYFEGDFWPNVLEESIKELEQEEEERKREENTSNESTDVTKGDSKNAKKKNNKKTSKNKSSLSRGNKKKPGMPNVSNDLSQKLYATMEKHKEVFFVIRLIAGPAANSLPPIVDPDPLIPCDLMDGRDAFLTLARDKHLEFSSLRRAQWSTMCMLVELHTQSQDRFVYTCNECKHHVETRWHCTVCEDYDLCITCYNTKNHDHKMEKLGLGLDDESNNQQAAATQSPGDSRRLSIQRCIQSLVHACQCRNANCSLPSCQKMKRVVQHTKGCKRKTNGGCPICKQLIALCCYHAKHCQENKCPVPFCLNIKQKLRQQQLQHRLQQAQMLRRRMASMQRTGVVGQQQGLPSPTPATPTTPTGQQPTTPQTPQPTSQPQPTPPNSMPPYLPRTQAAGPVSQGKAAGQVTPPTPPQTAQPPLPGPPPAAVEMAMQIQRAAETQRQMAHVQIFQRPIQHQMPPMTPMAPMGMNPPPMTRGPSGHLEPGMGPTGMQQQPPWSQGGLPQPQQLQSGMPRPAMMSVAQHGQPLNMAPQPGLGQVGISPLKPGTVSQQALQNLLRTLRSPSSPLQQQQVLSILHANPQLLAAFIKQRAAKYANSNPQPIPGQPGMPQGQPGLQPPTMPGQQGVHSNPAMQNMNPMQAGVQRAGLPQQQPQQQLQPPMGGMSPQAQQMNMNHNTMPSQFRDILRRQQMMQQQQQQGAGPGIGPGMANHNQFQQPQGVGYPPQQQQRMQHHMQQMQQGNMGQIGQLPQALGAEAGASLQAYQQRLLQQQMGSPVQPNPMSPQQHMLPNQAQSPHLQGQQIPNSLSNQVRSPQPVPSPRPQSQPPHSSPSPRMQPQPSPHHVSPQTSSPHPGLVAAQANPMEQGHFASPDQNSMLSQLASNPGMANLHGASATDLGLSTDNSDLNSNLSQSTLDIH

Histone deacetylase [7] = test: Inhibition of HDAC in human HeLa cells assessed as histone H3 hyperacetylation after 7 hrs; type: cell-based
Histone deacetylase [8] = test: Inhibition of HDAC in human HeLa cells assessed as alpha-tubulin acetylation after 7 hrs; type: cell-based
Histone deacetylase [9] = test: Inhibition of HDAC isolated from human HeLa cell nuclear extracts using Fluor de Lys as substrate after 30 mins by fluorescence assay; type: protein assay
[10] = molecular target: T2, Lysine-specific histone demethylase 1A; test: Inhibition of human LSD-1 by fluorescence-based assay
[11] = molecular target: Lysine-specific demethylase 4A (Homo sapiens, UniProt O75164); test: Inhibition of JMJD2A (unknown origin) using ARK(me3)STGGK peptide as substrate preincubated for 1 to 30 mins followed by substrate addition by MALDI-TOF/MS analysis
Chain of Lysine-specific demethylase 4A (O75164 whole entry): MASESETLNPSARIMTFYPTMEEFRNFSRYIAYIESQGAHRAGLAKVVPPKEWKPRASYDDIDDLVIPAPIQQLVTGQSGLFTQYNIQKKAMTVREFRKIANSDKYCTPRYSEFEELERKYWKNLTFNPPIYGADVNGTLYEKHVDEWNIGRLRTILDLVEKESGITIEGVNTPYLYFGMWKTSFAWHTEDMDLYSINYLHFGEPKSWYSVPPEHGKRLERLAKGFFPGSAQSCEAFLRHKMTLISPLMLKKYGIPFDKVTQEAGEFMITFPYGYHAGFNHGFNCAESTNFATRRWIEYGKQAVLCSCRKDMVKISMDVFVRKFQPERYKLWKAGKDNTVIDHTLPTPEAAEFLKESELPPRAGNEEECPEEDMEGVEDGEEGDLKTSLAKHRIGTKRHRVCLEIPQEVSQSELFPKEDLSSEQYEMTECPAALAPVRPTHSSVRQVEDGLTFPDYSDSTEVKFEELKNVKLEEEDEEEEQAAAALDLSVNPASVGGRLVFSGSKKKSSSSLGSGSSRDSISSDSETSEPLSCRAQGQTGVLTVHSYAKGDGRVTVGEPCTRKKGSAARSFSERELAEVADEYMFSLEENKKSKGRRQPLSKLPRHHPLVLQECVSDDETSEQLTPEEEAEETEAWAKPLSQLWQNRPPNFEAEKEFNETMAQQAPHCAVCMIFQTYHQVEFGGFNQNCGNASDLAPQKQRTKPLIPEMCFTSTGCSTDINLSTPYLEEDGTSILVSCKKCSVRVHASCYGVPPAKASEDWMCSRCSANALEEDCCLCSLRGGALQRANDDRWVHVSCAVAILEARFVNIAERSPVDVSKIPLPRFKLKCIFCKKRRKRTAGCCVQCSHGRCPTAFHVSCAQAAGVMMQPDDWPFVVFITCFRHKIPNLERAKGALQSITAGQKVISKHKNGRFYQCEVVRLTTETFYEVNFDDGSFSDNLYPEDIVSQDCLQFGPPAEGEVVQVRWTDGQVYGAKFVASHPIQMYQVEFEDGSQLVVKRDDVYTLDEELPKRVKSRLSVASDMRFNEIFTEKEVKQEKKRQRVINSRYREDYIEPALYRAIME

[12] = molecular target: T4, Histone acetyltransferase p300; test: Binding affinity to p300 (unknown origin) by ITC analysis
[13] = molecular target: T4, Histone acetyltransferase p300; test: Inhibition of recombinant full length p300 (unknown origin) expressed in baculovirus infected insect Sf21 cells using [3H]acetyl-CoA as substrate
[14] = molecular target: Histone-lysine N-methyltransferase EHMT2 (Homo sapiens, UniProt Q96KQ7)
Description: Inhibition of recombinant GST-tagged G9a (685 to 1000 amino acids) (unknown origin) expressed in Escherichia coli BL21 using biotinylated histone H3 peptide as substrate by DELFIA

[15] = molecular target: Histone-lysine N-methyltransferase SUV39H1 (Homo sapiens, UniProt O43463); test: Inhibition of SUV39H1 (unknown origin) by DELFIA
[16] = Half life in C57BL/6J mouse at 10 mg/kg, po; type: ADME, organism-based; parameters: dose 10 mg/kg, route oral; details: in vivo
Histone deacetylase 1 = Histone deacetylase 1 (Homo sapiens, UniProt Q13547)
Chain of Histone deacetylase 1 (Q13547 whole entry): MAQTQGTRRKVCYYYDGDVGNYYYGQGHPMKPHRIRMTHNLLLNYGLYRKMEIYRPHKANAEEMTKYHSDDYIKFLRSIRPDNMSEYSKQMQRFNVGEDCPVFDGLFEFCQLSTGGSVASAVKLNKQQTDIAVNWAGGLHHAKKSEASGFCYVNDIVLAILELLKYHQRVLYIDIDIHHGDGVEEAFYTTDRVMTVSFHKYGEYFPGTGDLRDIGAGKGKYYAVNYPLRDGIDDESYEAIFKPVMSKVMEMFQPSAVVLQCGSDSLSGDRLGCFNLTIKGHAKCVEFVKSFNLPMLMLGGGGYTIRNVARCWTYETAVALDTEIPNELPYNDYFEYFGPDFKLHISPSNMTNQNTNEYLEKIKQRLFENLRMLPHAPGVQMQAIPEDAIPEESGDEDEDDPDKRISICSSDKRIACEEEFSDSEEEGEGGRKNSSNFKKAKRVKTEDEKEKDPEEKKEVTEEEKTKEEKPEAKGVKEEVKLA
Description: Inhibition of HDAC-1 (unknown origin) using (FAM)-labeled acetylated peptide as substrate after 17 hrs by fluorescence assay

Histone deacetylase 2 = Histone deacetylase 2 (Homo sapiens, UniProt Q92769); test: Inhibition of HDAC-2 (unknown origin) using (FAM)-labeled acetylated peptide as substrate after 17 hrs by fluorescence assay
Chain of Histone deacetylase 2 (Q92769 whole entry): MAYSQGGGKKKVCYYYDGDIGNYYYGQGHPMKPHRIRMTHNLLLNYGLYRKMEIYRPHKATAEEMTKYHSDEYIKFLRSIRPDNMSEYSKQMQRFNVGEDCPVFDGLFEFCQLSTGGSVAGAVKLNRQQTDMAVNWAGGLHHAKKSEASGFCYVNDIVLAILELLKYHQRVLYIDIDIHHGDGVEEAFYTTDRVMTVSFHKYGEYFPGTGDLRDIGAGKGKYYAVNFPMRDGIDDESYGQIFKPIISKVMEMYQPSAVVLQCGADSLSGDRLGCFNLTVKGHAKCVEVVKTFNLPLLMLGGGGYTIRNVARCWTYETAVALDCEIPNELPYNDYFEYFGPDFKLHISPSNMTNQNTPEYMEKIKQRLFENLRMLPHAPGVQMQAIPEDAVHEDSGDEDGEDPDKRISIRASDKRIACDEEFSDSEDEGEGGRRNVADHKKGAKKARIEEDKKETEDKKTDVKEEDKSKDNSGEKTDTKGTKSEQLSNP

Histone deacetylase 3 = Histone deacetylase 3 (Homo sapiens, UniProt O15379); test: Inhibition of HDAC-3 (unknown origin) using (FAM)-labeled acetylated peptide as substrate after 17 hrs by fluorescence assay
Chain of Histone deacetylase 3 (O15379 whole entry): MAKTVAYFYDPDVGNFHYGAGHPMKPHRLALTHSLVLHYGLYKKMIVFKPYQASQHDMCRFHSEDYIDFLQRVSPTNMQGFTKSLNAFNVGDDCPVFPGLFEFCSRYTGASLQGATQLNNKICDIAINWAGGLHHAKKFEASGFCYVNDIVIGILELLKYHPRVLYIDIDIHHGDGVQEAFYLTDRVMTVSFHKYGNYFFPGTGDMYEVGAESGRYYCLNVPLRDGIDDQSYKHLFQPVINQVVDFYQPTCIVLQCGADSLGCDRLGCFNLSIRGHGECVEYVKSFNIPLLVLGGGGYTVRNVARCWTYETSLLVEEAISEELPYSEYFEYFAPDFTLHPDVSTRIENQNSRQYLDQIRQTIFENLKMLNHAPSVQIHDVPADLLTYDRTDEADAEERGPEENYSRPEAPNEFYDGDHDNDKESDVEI

Saccharomyces cerevisiae = test: Selectivity for yeast Hst1p over yeast Sir2p
[17] = molecular target: NAD-dependent protein deacetylase sirtuin-1 (Homo sapiens, UniProt Q96EB6); test: Inhibition of human SIRT-1
[18] = molecular target: T5, NAD-dependent protein deacetylase sirtuin-2 (Homo sapiens, UniProt Q8IXJ6); test: Inhibition of human SIRT-2
T5 sequence (Q8IXJ6 whole entry): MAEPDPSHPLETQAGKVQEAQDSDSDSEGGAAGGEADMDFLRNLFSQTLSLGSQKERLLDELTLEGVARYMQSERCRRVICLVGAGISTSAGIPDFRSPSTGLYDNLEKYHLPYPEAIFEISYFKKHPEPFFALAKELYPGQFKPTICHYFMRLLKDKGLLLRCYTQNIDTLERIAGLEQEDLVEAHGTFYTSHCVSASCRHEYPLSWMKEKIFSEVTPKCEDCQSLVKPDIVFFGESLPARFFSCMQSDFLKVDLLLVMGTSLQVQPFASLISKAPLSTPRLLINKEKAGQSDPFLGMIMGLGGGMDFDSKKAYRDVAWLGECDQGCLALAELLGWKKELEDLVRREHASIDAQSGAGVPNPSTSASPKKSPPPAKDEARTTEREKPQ

CNCCN1CCC(c2ccc3[nH]c(-c4ccccc4OC)c(F)c3c2)CC1
pIC50 [1]: 7.52

CN1C(=O)[C@@]23C[C@]4([C@]56C[C@@]78SS[C@@](CO)(C(=O)N7[C@H]5Nc5ccccc56)N(C)C8=O)c5ccccc5N[C@@H]4N2C(=O)[C@]1(CO)SS3 [CHAETOCIN]
pIC50 [2]: 5.52

C/N=C(\NC)NCCCNCCCNCCCN/C(=N/C)NC
inhibition [3]: > 50%

C[C@](N)(Cc1ccc(O)c(O)c1)C(=O)O [METHYLDOPA]
pIC50 [4]: 5.52

CCNCCCCCCCCCCCCCCCCNC/C=C/CNCCCCCCCCCCCCCCCCNCC
pIC50 [5]: 5.30

COc1cc(C(=O)C2=C3OC(C)(C)[C@@H](CC=C(C)C)C[C@@]34C[C@@H](CC=C(C)C)C(C)(C)[C@@](CC=C(C)C)(C2=O)C4=O)ccc1O
pIC50 [6]: 5.30

CC(=O)SCC(=O)c1ccc(NS(=O)(=O)c2ccc(OCCCN(C)C)cc2)nc1
EC50 (Histone deacetylase [7]): 0.025 µM | EC50 (Histone deacetylase [8]): 0.325 µM | IC50 (Histone deacetylase [9]): 0.045 µM

O=C(O)/C=C/C(=O)N(O)CCCCNCc1ccc(COC(=O)Nc2cccc3ccccc23)cc1
pIC50 [10]: 3.21

N=C(NCCCNCCCCCCCNCCCNC(=N)NC(=N)NCCC(c1ccccc1)c1ccccc1)NC(=N)NCCC(c1ccccc1)c1ccccc1
inhibition [3]: > 50%

CCNC(=S)SSC(=S)NCC
pIC50 [11]: 4.82

CC1=CC(=O)c2c(O)cccc2C1=O [PLUMBAGIN]
pKd [12]: 5.70 | pIC50 [13]: 5.70

COc1ccc(C(=O)Oc2ccc(CCn3c(NC(=O)c4ccc(C(F)(F)F)cc4)nc4cc(C(=O)O)ccc43)cc2)cc1
pIC50 [14]: 5.33 | pIC50 [15]: 5.96

NC(=O)C1CCCc2c1[nH]c1ccc(Cl)cc21 (stereo not given)
half-life [16]: 2 h

Nc1ccccc1NC(=O)CCCCCCC(=O)Nc1ccccc1N
pIC50 (Histone deacetylase 1): 4.84 | pIC50 (Histone deacetylase 2): 5.32 | pIC50 (Histone deacetylase 3): 6.01

O=c1ccc2c(ccc3ccccc32)o1
Selectivity ratio (Saccharomyces cerevisiae): 5

CC(C)=CCC/C(C)=C/C[C@@H]1C[C@@]2(CC=C(C)C)C(=O)[C@](CC=C(C)C)(C(=O)C(C(=O)c3ccc(O)c(O)c3)=C2O)[C@@]1(C)CCC=C(C)C
pIC50 [17]: 5.05 | pIC50 [18]: 4.66

Oc1ccc(C2CNCCc3c2cc(O)c(O)c3Cl)cc1 (stereo not given) [FENOLDOPAM]
pIC50 [4]: 5.52

NCCc1ccc(O)c(O)c1 [DOPAMINE]
pIC50 [4]: 5.52
